{"source": "patent US20090318354A1", "about": "“Use of at least one isoform of progesterone receptor membrane component 1 (PGRMC1)” (PROTEOSYS AG, priority 2006, published 2009)", "key": {"[1]": {"tested_on": "breast cancer exhibiting a positive ER status", "settings": "patients suffering from breast cancer exhibiting a positive ER status; cited from earlier work"}, "MCF7 breast cancer cells": {"tested_on": "MCF7 breast cancer cells", "assay": "ATP-TCA cell viability assay in MCF7 cells and MCF7 cells stably expressing PGRMC1 WT or mutants", "type": "cell-based, human"}, "AKT": {"tested_on": "AKT", "settings": "S56A/S180A and Y179F/S180A mutants, H2O2 even at 1 mM", "source_text": "Antibodies employed were specific for phosphorylated AKT (top), for the polypeptide backbone of AKT (middle), or for the HA-tag on the respective exogenously expressed PGRMC1 constructs."}}}
{"molecule": "CC/C(=C(\\c1ccccc1)c1ccc(OCCN(C)C)cc1)c1ccccc1", "note": "[tamoxifen]", "values": [{"measurement": "cases in which treatment is effective", "setting": "[1]", "result": "approximately 50%"}, {"measurement": "resistance of clone to Tamoxifen", "setting": "MCF7 breast cancer cells; clone S56A/S180A, comparable to wild-type PGRMC1 control or native MCF7 cells", "result": "exhibited resistance"}, {"measurement": "susceptibility of clone to Tamoxifen", "setting": "MCF7 breast cancer cells; clone S180A", "result": "highly susceptible"}, {"measurement": "viability of cells", "setting": "MCF7 breast cancer cells; tamoxifen 10^-8 M, charcoal-treated FCS, 5 days", "result": "reduced viability"}]}
{"molecule": "CC(=O)[C@H]1CC[C@H]2[C@@H]3CCC4=CC(=O)CC[C@]4(C)[C@H]3CC[C@]12C", "note": "[Progesterone, progesterone]", "values": [{"measurement": "proliferative effect relative to other cells", "setting": "MCF7 breast cancer cells; PGRMC1-WT cell line, progesterone 10^-7 M, 5 days, charcoal-treated FCS", "result": "marginal proliferative effect"}, {"measurement": "viability of cells", "setting": "MCF7 breast cancer cells; cells generally, progesterone 10^-7 M, charcoal-treated FCS, 5 days", "result": "not affected greatly"}]}
{"molecule": "estrogen", "values": [{"measurement": "viability of cells", "setting": "MCF7 breast cancer cells; estrogen 10^-9 M added to RPMI with charcoal-treated FCS, 5 days", "result": "improved"}, {"measurement": "rescue of impaired viability in the presence of tamoxifen", "setting": "MCF7 breast cancer cells; estrogen 10^-9 M plus tamoxifen 10^-8 M", "result": "could not rescue"}]}
{"molecule": "methyl-β-cyclodextrin", "values": [{"measurement": "cell viability relative to MCF7 control cells", "setting": "MCF7 breast cancer cells; cells expressing all PGRMC1 mutants except S180A, 5 mM methyl-beta-cyclodextrin, 2 h, charcoal-treated FCS", "result": "drastically reduced cell viability"}]}
{"molecule": "CC[C@H](C)C(=O)O[C@H]1C[C@@H](C)C=C2C=C[C@H](C)[C@H](CC[C@@H]3C[C@@H](O)CC(=O)O3)[C@H]21", "note": "[lovastatin]", "values": [{"measurement": "viability", "setting": "MCF7 breast cancer cells; PGRMC1 Y179F/S180A mutant, lower concentrations of lovastatin", "result": "improved viability"}, {"measurement": "viability", "setting": "MCF7 breast cancer cells; all cell lines, high levels of lovastatin, 2 days, charcoal-treated FCS", "result": "reduced"}]}
{"molecule": "OO", "note": "[H2O2, hydrogen peroxide]", "values": [{"measurement": "cell viability", "setting": "MCF7 breast cancer cells; MCF7 cells, 50 μM H2O2, RPMI with 10% FCS", "result": "reduced cell viability"}, {"measurement": "phosphorylation of AKT upon H2O2 treatment", "setting": "AKT", "result": "neither of the mutants that survived H2O2 treatment in FIG. 10B exhibited phosphorylation of AKT"}]}
